Assay results reported in US10959997B2, “Combined agent for cell therapy of corneal endothelial cell” (KYOTO PREFECTURAL PUBLIC UNIVERSITY CORPORATION, priority 2013, dated 2021).
Where a name gives a salt, the structure may show the parent alone. Read-outs that look alike come from different tables or passages of the source.

What was measured:
type II myosin = details: enantiomer of blebbistatin; cited from earlier work
paxillin phosphorylation = assay: Western blot of adhesion-related molecules (phospho paxillin); format: cell-based, cynomolgus monkey
[1] = system: rabbit bullous keratopathy model; assay: Transplantation of cultured corneal endothelial cells in combination with inhibitor, injected into the anterior chamber; format: in vivo; details: for state of the anterior ocular section after transplantation (pictures): day 3, day 7, day 14
Method: In primary culture of rabbit corneal endothelial cells, a Descemet's membrane including an endothelial cell layer was detached from a corneal tissue and 0.5 ml of Accutase (catalog number: AT104, Innovative Cell Technologies) was used for each eye, and incubated at 37° C. by using a water bath. After 20 minutes, a culture medium was added and pipetting was performed. The sample was centrifuged at 1200 rpm for 3 minutes to remove the supernatant. A culture medium was then added to a precipitated corneal endothelial cell mass for admixing. The entire amount was seeded on a 12-well plate coated with FNC Coating Mix (catalog No.: 0407; Athena Enzyme Systems, Baltimore, Md., USA). DMEM (catalog No.: 12320; Gibco-Invitrogen), to which 10% FBS, 1% Penicillin-Streptomycin Mixed Solution (catalog number: 26252-94; Nacalai Tesque), and 2 ng/ml basic fibroblast growth factor, catalog number: 13256-029; bFGF; Invitrogen) were added, was used as a culture medium.
A medium was exchanged every other day. Subculture was performed when 50 to 80% confluence was reached. With respect to the subculturing method, cells were washed with Ca^2+Mg^2+-free PBS (PBS−; Nissui Pharmaceutical Co., Ltd., Tokyo, Japan), and 0.05% Trypsin-EDTA (catalog No.: 25300-054; Invitrogen) was added and incubated at 37° C. for 3 minutes. Cells were detached and collected from the plate. After the cells were centrifuged at 1500 rpm for 3 minutes, a culture medium was added to make a cell suspension. Cells were seeded on a plate coated with FNC Coating Mix at a density of 1:2-3.
Rabbit corneal endothelial cells were detached with a soft tapered needle (Inami, M-563S) to make a bullous keratopathy model. Subsequently, 5.0×10^5 cultured rabbit corneal endothelial cells were suspended in 200 μl of Dulbecco's Modified Eagle Medium (DMEM) with blebbistatin adjusted to a final concentration of 10 μM. The suspension was injected into the anterior chamber and the corneal surface was maintained in a face-down position for three hours. A group injected with 5.0×10^5 rabbit corneal endothelial cells suspended into 200 μl of Dulbecco's Modified Eagle Medium (DMEM) with Y-27632 adjusted to a final concentration of 100 μM in the anterior chamber, a group subjected only to scraping off of corneal endothelial cells, and a group injected with 5.0×10^5 rabbit corneal endothelial cells suspended in a 200 μl of Dulbecco's Modified Eagle Medium (DMEM) into the anterior chamber were used as comparison groups.
A rabbit bullous keratopathy model eye with the corneal endothelium scraped off was injected with 5.0×10^5 cultured rabbit corneal endothelial cells suspended in 200 μl of Dulbecco's Modified Eagle Medium (DMEM) with blebbistatin adjusted to a final concentration of 1 μM and 3 μM into the anterior chamber as in Example 3. […]

[2] = system: myosin light chain (MLC) phosphorylation; assay: Western blot of Rho-ROCK pathway activity (phospho myosin light chain); format: cell-based, cynomolgus monkey
Method: DMEM (Gibco-Invitrogen) to which Y-27632 was added such that the final concentration would be 10 μM and cultured monkey corneal endothelial cells were seeded. Over time, i.e., 0, 1, 3, and 24 hours thereafter, proteins extracted with RIPA buffer were subjected to electrophoresis with 7.5% polyacrylamide. DMEM (Gibco-Invitrogen) was used as a control. The separated protein was transcribed onto a PVDF membrane (PALL LIFE SCIENCE, catalog number: EH-2222). Blocking procedure was carried out by incubating a Tris buffered saline (10 mM Tris-HCl, pH 7.4, 100 mM NaCl) supplemented with 0.1% (vol/vol) polyethylene sorbitan monolaurate (Nacalai Tesque, catalog number: 28353-85) (TBS-T) and 5% non-fat dry milk (CELL SIGNALING, catalog number: 9999) and the blotted membrane for one hour. The membrane was then immersed in TBS-T supplemented with antibodies against Phospho Myosin Light Chain 2 (Thr18/Ser19) (CELL SIGNALING, catalog number: 3674), Phospho FAK (Y397) (D20B1) Rabbit mAb (CELL SIGNALING, catalog number: 8556), Phospho Paxillin (Tyr118) Antibody (CELL SIGNALING, catalog number: 2541), GAPDH (14C10) Rabbit mAb (CELL SIGNALING, catalog number: 2118) and diluted 1000-fold, and reacted for 1 hour at room temperature. […]

[3] = system: focal adhesion kinase (FAK) phosphorylation; format: cell-based, cynomolgus monkey
[4] = system: cultured monkey corneal endothelial cells; assay: Examination of number of adhering cells with CellTiter-Glo; format: cell-based, cynomolgus monkey
actin polymerization = details: cited from earlier work
[5] = system: skeletal muscle myosin II; details: cited from earlier work
non-muscle myosin II = details: cited from earlier work

SMILES: Cc1ccc2c(c1)C(=O)C1(O)CCN(c3ccccc3)C1=N2 (single isomer, unassigned; (+)) [(+) form]
- effect as myosin II-specific inhibitor (type II myosin): does not

SMILES: C[C@@H](N)[C@H]1CC[C@H](C(=O)Nc2ccncc2)CC1 [Y-27632, (R)-(+)-trans-(4-pyridyl)-4-(1-aminoethyl)-dihydrochloride cyclohexanecarboxamide monohydrate]
- phosphorylation of paxillin (paxillin phosphorylation): phosphorylated at an early stage
- state of the anterior ocular section after transplantation (pictures) ([1]; Y-27632 100 μM with 5.0×10^5 cells in 200 μl DMEM): excellent
- concentration at which efficacy is exhibited ([1]; animal models with bullous keratopathy): 10 to 100 µM
- MLC phosphorylation ([2]; Y-27632 10 μM, 0, 1, 3 and 24 hours): suppresses
- phosphorylation of FAK [3]: phosphorylated at an early stage
- number of adhering cells [4]: significantly increased

SMILES: Cc1ccc2c(c1)C(=O)[C@]1(O)CCN(c3ccccc3)C1=N2 [blebbistatin, (S)-(−)-Blebbistatin]
- effect as myosin II-specific inhibitor (type II myosin): has an effect
- phosphorylation of paxillin (paxillin phosphorylation; blebbistatin 100 μM, 0, 1, 3 and 24 hours): phosphorylated at an early stage
- concentration needed for therapy compared with Y-27632 ([1]; blebbistatin 1 μM, 3 μM, 10 μM versus Y-27632 100 μM): therapy was possible at a lower concentration relative to Y-27632
- state of the anterior ocular section after transplantation (pictures) ([1]; blebbistatin 10 μM with 5.0×10^5 cells in 200 μl DMEM): excellent as with Y-27632
- MLC phosphorylation activity ([2]; addition of blebbistatin, stated in the discussion): suppression of the MLC phosphorylation activity
- number of adhering cells ([4]; blebbistatin 100 μM, three hours from seeding, in comparison to the control (DMEM)): significantly increased

SMILES: CC(=O)C(C)=NO [BDM, 2,3-butanedione monoxime]
- effect on actin polymerization (actin polymerization): inhibiting actin polymerization
- action on skeletal muscle myosin II [5]: has action on skeletal muscle myosin II
- inhibiting effect on non-muscle myosin II (non-muscle myosin II): does not have an inhibiting effect
